In US20240252474A1, “METHODS AND COMPOSITIONS COMPRISING A CARDIO-TOLERATED HDAC INHIBITOR” (HUYABIO International, LLC, priority 2023, published 2024):
“And” between values parts separate entries of the source, which are not always exact repeats. Equal values may be shown once. Read-outs that look alike come from different tables or passages of the source.

Tests used:
[1] = Non-compartmental PK analysis of HBI-8000 plasma concentrations; format: in vivo, human; conditions: for AUC0-7/D / AUC0-24/D / Cmax/D / CPre/D: dose-normalized; for AUC from 0 to 7 h post-dose: read-out: AUC0-7; for AUC(0-t): read-out: AUC0-24
From the text: Statistical analyses of safety, tolerability, and anti-tumor activity were primarily descriptive in nature. Toxicities were tabulated by type and grade. The safety population included all patients who received ≥1 dose of HBI-8000 and nivolumab. Continuous variables were summarized using descriptive statistics and categorical variables were summarized with number and percentage at each category. Pharmacokinetic parameters were derived using noncompartmental methods with Phoenix® WinNonlin® Version 6.4 (Certara, L. P., Princeton, NJ, USA).
(§1) Non-compartmental PK analysis for HBI-8000 was conducted in Phase 1b using serial plasma concentration data collected up to 24 hours post-dose for the first (Cycle 1 Day 1; C1D1) dose and up to 7 hours post-dose for the ninth (C2D1) dose of HBI-8000. In conjunction with PK, Holter monitors were used to record 12-lead continuous digital ECGs (under controlled conditions to minimize digital noise) on a baseline day (within 1-7 days prior to C1D1) and on C1D1 (Phase 1b only). Triplicate 10-second ECGs were extracted from the Holter flashcard at matched time-points on the baseline day and on C1D1 up to 4 hours post-dose and the PR, QRS, RR, and QT intervals were analyzed by a Central ECG Laboratory. Meal-times (breakfast) were standardized across both days and occurred after or ≥1 hour before the scheduled extraction times for triplicate ECGs. The measured QT data were corrected for heart rate using Fridericia (QTcF).

[2] = system: advanced solid tumors, including melanoma, RCC (renal cell carcinoma), and NSCLC (non-small cell lung cancer); assay: Tumor response by RECIST v.1.1; format: in vivo, human
From the text: The decision to escalate the dose was based on the conventional 3+3 design and observed incidences of dose-limiting toxicities (DLTs). Each treatment cycle was defined as 28 days. To be evaluable for DLT, a subject must have developed DLT, or received the minimum 75% of the planned HBI-8000 dose within the 28-day DLT evaluation period in the absence of treatment delays due to toxicities. Subjects experiencing DLT within the first two weeks after having received 100% of assigned dose of HBI-8000 are also evaluable for DLT. Unacceptable toxicities were defined as grade 3 or higher non-hematologic and hematologic toxicities with clinical complications. Unacceptable toxicities observed over the first 28 days following HBI-8000 administration were considered as DLTs. The RP2D was identified as the highest dose at which the DLT incidence was less than 33.3%. HBI-8000 administration continued until disease progression or unacceptable toxicity was observed. The efficacy of the combination was further evaluated in an expanded cohort of selected patient populations at RP2D based on an objective response rate according to Response Evaluation Criteria in Solid Tumors (RECIST) version 1.1 criteria, progression-free survival, and duration of responses.
Tumor assessments were performed every 8 weeks until treatment discontinuation, then every 12 (±1) weeks in subjects in whom disease progression has not yet been observed, and followed the guidelines specified by RECIST v.1.1 and immune-related Response Evaluation Criteria In Solid Tumors (iRECIST).

[3] = system: electrocardiogram (ECG) QT interval; assay: 12-lead Holter ECG (QTcF, heart rate) and concentration-QT modeling; format: in vivo; conditions: for median ΔQTcF across time points: C1D1, up to 4 hours post dose
Experimental: In conjunction with the pharmacokinetic analysis, Holter monitors were used to record 12-lead continuous digital ECGs (under controlled conditions to minimize digital noise) on a baseline day (within 1-7 days prior to C1D1) and on C1D1 (Phase 1b only). Triplicate 10-second ECGs were extracted from the Holter flashcard at matched time-points on the baseline day and on C1D1 at pre-dose (0.5 hr prior to breakfast), and up to 4 hours post-dose. The PR, QRS, RR, and QT intervals were analyzed by a central ECG laboratory. Mealtimes (breakfast) were standardized across both days. The measured QT data were corrected for heart rate using the Fridericia correction (QTcF). • QTcF was calculated using the formula: Fridericia: QTcFri=QT/(RR)^1/3 (Fridericia L S. Die systolendauer im elektrokardiogramm bei normalenmenschen und bei herzkranken. Acta Med Scand. 1920; 53:469-486).
as §1

[4] = 20 mg, n = 2, individual values
[5] = C1D1, 20 mg, n = 3, geometric mean
[6] = C1D1, 30 mg, n = 7, geometric mean
[7] = C1D1, 40 mg, n = 7, geometric mean
[8] = C2D1, 20 mg, n = 2, individual values
[9] = C2D1, 30 mg, n = 3, geometric mean
[10] = C2D1, 40 mg, n = 4, geometric mean
[11] = human, plasma, oral, 20 mg, C1D1, 20 mg, n = 3, geometric mean
[12] = human, plasma, oral, 30 mg, C1D1, 30 mg, n = 7, geometric mean
[13] = HBI-8000 + nivolumab, 3 NSCLC patients
[14] = HBI-8000 + nivolumab, 5 melanoma patients
[15] = HBI-8000 + nivolumab, 7 RCC patients

Question: Which results are given for `Nc1cc(F)ccc1NC(=O)c1ccc(CNC(=O)/C=C/c2cccnc2)cc1` [HBI-8000, N-(2-amino-4-fluorophenyl)-4-[[[(2E)-1-oxo-3-(3-pyridinyl)-2-propen-1-yl]amino]methyl]benzamide]?
Answer: median plasma concentration at 4 hours, lower than Cmax by ([1]; 20 mg dose): 17%; AUC0-7 Ratio (C2D1/C1D1) [1, 4]: 0.69 and 1.99; Cmax Ratio (C2D1/C1D1) [1, 4]: 1.06 and 1.80; median plasma concentration at 4 hours, lower than Cmax by ([1]; 30 mg dose): 19%; AUC0-7 Ratio (C2D1/C1D1) ([1]; 30 mg, n = 3, geometric mean): 1.37; Cmax Ratio (C2D1/C1D1) ([1]; 30 mg, n = 3, geometric mean): 1.08; AUC0-7 Ratio (C2D1/C1D1) ([1]; 40 mg, n = 3, geometric mean): 1.36; Cmax Ratio (C2D1/C1D1) ([1]; 40 mg, n = 4, geometric mean): 1.18; median plasma concentration at 4 hours, lower than Cmax by ([1]; 40-mg dose): 15%; Accumulation, first versus ninth dose ([1]; BIW dosing, C1D1 vs C2D1): No significant accumulation; Cmax ([1]; C1D1, 20 mg oral, n = 3, geometric mean): 104.9 ng/mL; AUC0-7/D [1, 5]: 19.2 ng·h/mL/mg; AUC0-24/D [1, 5]: 79.5 ng·h/mL/mg; Cmax/D [1, 5]: 5.24 ng/mL/mg; Cmax ([1]; C1D1, 30 mg oral, n = 7, geometric mean): 117.6 ng/mL; AUC0-7/D [1, 6]: 11.4 ng·h/mL/mg; AUC0-24/D [1, 6]: 57.8 ng·h/mL/mg; Cmax/D [1, 6]: 3.92 ng/mL/mg; Cmax ([1]; C1D1, 40 mg oral, n = 7, geometric mean): 259.3 ng/mL; AUC0-7/D ([1]; C1D1, 40 mg, n = 6, geometric mean): 24.3 ng·h/mL/mg; AUC0-24/D [1, 7]: 92.2 ng·h/mL/mg; Cmax/D [1, 7]: 6.49 ng/mL/mg; Cmax ([1]; C2D1, 20 mg BIW, n = 2, individual values): 83.1 ng/mL and 182 ng/mL; AUC0-7 [1, 8]: 250 ng·h/mL and 728 ng·h/mL; CPre (pre-dose trough concentration) [1, 8]: 4.76 ng/mL and 4.79 ng/mL; Tmax [1, 8]: 3.0 h; AUC0-7/D [1, 8]: 12.5 ng·h/mL/mg and 36.4 ng·h/mL/mg; CPre/D [1, 8]: 0.238 ng/mL/mg and 0.240 ng/mL/mg; Cmax/D [1, 8]: 4.16 ng/mL/mg and 9.10 ng/mL/mg; CPre (pre-dose trough concentration) [1, 9]: 16.1 ng/mL; AUC0-7/D [1, 9]: 13.1 ng·h/mL/mg; CPre/D [1, 9]: 0.536 ng/mL/mg; Cmax/D [1, 9]: 3.76 ng/mL/mg; CPre (pre-dose trough concentration) [1, 10]: 14.2 ng/mL; AUC0-7/D [1, 10]: 23.2 ng·h/mL/mg; CPre/D [1, 10]: 0.356 ng/mL/mg; Cmax/D [1, 10]: 5.73 ng/mL/mg; AUC from 0 to 7 h post-dose [1, 11]: 384 ng·h/mL; AUC(0-t) [1, 11]: 1590 ng·h/mL; Tmax ([1]; human, plasma, oral, 20 mg, C1D1, 20 mg, n = 3, median, read-out: tmax): 6.6 h; AUC from 0 to 7 h post-dose [1, 12]: 342 ng·h/mL; AUC(0-t) [1, 12]: 1730 ng·h/mL; Tmax ([1]; human, plasma, oral, 30 mg, C1D1, 30 mg, n = 7, median, read-out: tmax): 6.5 h; Cmax ([1]; human, plasma, oral, 30 mg, C2D1, 30 mg BIW, n = 3, geometric mean, read-out: Cmax): 113 ng/mL; AUC from 0 to 7 h post-dose ([1]; human, plasma, oral, 30 mg, C2D1, 30 mg, n = 3, geometric mean): 392 ng·h/mL; Tmax ([1]; human, plasma, oral, 30 mg, C2D1, 30 mg, n = 3, median, read-out: tmax): 6.7 h; AUC from 0 to 7 h post-dose ([1]; human, plasma, oral, 40 mg, C1D1, 40 mg, n = 6, geometric mean): 973 ng·h/mL; AUC(0-t) ([1]; human, plasma, oral, 40 mg, C1D1, 40 mg, n = 7, geometric mean): 3690 ng·h/mL; Tmax ([1]; human, plasma, oral, 40 mg, C1D1, 40 mg, n = 7, median, read-out: tmax): 4.8 h; Cmax ([1]; human, plasma, oral, 40 mg, C2D1, 40 mg BIW, n = 4, geometric mean, read-out: Cmax): 229 ng/mL; AUC from 0 to 7 h post-dose ([1]; human, plasma, oral, 40 mg, C2D1, 40 mg, n = 4, geometric mean): 929 ng·h/mL; Tmax ([1]; human, plasma, oral, 40 mg, C2D1, 40 mg, n = 4, median, read-out: tmax): 6.8 h; Tmax ([1]; human, plasma, oral, 40 mg, range across 20, 30 and 40 mg BIW dose cohorts, post dose, read-out: median time to peak plasma concentration (tmax)): 5 to 7 h; Cmax ([1]; human, plasma, po, 20 mg, C1D1, 20 mg oral, n = 3, geometric mean, read-out: Cmax): 105 ng/mL; Cmax ([1]; human, plasma, po, 30 mg, C1D1, 30 mg oral, n = 7, geometric mean, read-out: Cmax): 118 ng/mL; Cmax ([1]; human, plasma, po, 40 mg, C1D1, 40 mg oral, n = 7, geometric mean, read-out: Cmax): 259 ng/mL; NSCLC, PR [2, 13]: 1 patients; NSCLC, stable disease [2, 13]: 2 patients; Melanoma, complete response (CR) [2, 14]: 1 patients; Melanoma, partial responses (PR) [2, 14]: 4 patients; Melanoma patients who responded ([2]; HBI-8000 + nivolumab, 5 melanoma patients, RECIST v.1.1): 5 patients; RCC, PR [2, 15]: 2 patients; RCC, progressive disease [2, 15]: 4 patients; RCC, stable disease [2, 15]: 1 patients; earliest objective response, time of treatment ([2]; HBI-8000 + nivolumab, first scheduled tumor assessment, end of Cycle 2): 8 weeks; longest time to response after treatment initiation ([2]; one patient, nivolumab and HBI-8000 ceased after 16 months): 32 months; median ΔQTcF across time points ([3]; 30 mg dose): 0 to −1.5 ms; highest median decrease in QTcF ([3]; 40 mg dose, 4 hours post dose): -11.5 ms; median ΔQTcF across time points ([3]; 40 mg dose): −3.0 to −11.5 ms; mean upper 90% confidence limits of model-predicted ΔQTcF ([3]; 20, 30 and 40 mg doses, threshold 10 ms): −1.1 to −2.8 ms; QTcF values ([3]; all patients, 20-40 mg): ≤ 450 ms; ΔQTcF values ([3]; all patients, 20-40 mg): ≤ 30 ms; Effect on QTcF (conclusion) ([3]; at the doses and regimen administered): did not prolong QTcF; change from baseline ventricular heart rate ([3]; single dose 20, 30 or 40 mg on C1D1, 0 to 4 hour): remained essentially stable
